In patent publication US12583870B2, “Azaheteroaryl compound and application thereof” (SHANGHAI BLUERAY BIOPHARMA CO., LTD., priority 2019, dated 2026):

Assays:
[1] = tested on: trimethylation level of histone H3K27 in G401 cells; assay: ELISA (H3K27 trimethylation) analysis in G401 cells; type: cell-based; conditions: Homo sapiens, G-401, 72 hours, H3K27me3 standardized to H3
Experimental: 3-fold series dilution with DMSO was carried out on the representative compounds of the present disclosure; and 10 concentration gradients were detected for each compound, with the highest detection concentration of 10 μM. The compounds were diluted 200-fold into the G401 cells cultured in a 96-well plate (DMSO at a final concentration of 0.5%). After the cells, administered with the compound, were cultured for 72 hours, the trimethylation level of the histone H3K27 was detected using the ELISA method.
Extraction of the histone: in a 96-well plate, the compound-treated cells were washed three times with 1×PBS (10×PBS buffer (80 g NaCl (Sigma, product number S3014), 2 g KCl (Sigma, product number 60128), 14.4 g Na2HPO4 (Sigma, product number S5136), and 2.4 g KH2PO4 (Sigma, product number P9791) in 1 L of water, adjusting the pH to 7.4)). 100 μL of 0.4 N HCl was added into each well. The plate was placed at 4° C. and gently agitated for 2 hours to lyse the cells. The cell lysate was then neutralized with 80 μL of neutralization buffer (0.5 M disodium hydrogen phosphate, pH 12.5, 2.5 mM DTT; 1% cocktail (Sigma, product number P8340)) (the cell lysate and the neutralization buffer were thoroughly mixed to uniformity).
ELISA detection method: the cell lysate was transferred in parallel to two 384-well detection plates (PerkinElmer, OptiPlate-384HB, product number 6007290), wherein one of the plates was used to detect the H3K27 trimethylation level and the other plate was used to determine the level of H3. PBS was used to adjust the final volume to 50 μL/well. The plates were coated at 4° C. overnight. On the following day, the solution inside the wells was discarded and the plates were washed 5 times with TBST buffer (1×TBS (10×TBS: 24.2 g Tris (Sigma, product number T6066), 80 g NaCl (Sigma, product number S3014) in 1 L of water, adjusting the pH with HCl to 7.6), 0.1% Tween-20) and dried on an absorbent paper by inversion. 70 μL of blocking buffer (TBST, 5% BSA) was added into the coated reaction wells and the plates were incubated at room temperature for 1 hour. The blocking buffer was discarded and primary antibodies were added (30 μL/well). The desired primary antibodies were all diluted with a blocking buffer and the dilution factor was as follows: anti-H3K27me3 antibody (Cell Signaling Technology, product number 9733), 1:2000 dilution; anti-H3 antibody (Cell Signaling Technology, product number 4499), 1:10000 dilution. After the primary antibodies were added, the plates were placed at room temperature and incubated for 1 hour. After the plates were washed with TBST 5 times, the plates were dried by inversion. A secondary antibody (30 μL/well) was added to each of the reaction wells and the plates were incubated at room temperature for 1 hour. The secondary antibody (anti-rabbit antibody (Jackson ImmunoResearch, product number 111-035-003)) was diluted 2000-fold with a blocking buffer before use. After 1 hour, the plates were washed with TBST and dried by inversion. 30 μL of ECL substrate (Pierce, product number 34080) was added into each well and centrifuged at 2000 rpm for 30 seconds. The signal of each sample was detected using SpectraMax (Molecular Devices). Data processing: H3K27 methylation readings were first standardlized using H3 signals and 0.5% DMSO-treated samples was used as the control to calculate the inhibition percentage of the compounds. Data were fit to obtain Dose-Response curves using the GraphPad prism 5 program and the IC50 values of the test compounds were obtained.

KARPAS-422 cells = assay: Cell proliferation analysis, KARPAS-422, 13 days, CellTiter-Glo; type: cell-based; conditions: Homo sapiens, 312 h
Experimental: Human B-cell non-Hodgkin lymphoma cells, KARPAS-422 S, were cultured in a culture flask using standard cell culture conditions. The medium contained 15% fetal bovine serum (FBS, Invitrogen, product number 10099-141) and 1% penicillin/streptomycin solution (P/S) RPMI-1640 (Invitrogen, product number 11875), and the culture flask was placed and cultured in a sterile incubator at the temperature of 37° C. and […] with a relative humidity of […] To detect the effect of PRC2 inhibitors on cell proliferation, cells in exponential growth phase were taken and seeded into a 96-well plate (Corning, product number 3904) at a density of 1×10^4 cells/well, and 100 μL of the medium was added into each well. Subsequently, the compounds at different concentrations disclosed in the present disclosure were added into the wells where cells had already been seeded (9 concentration gradients were provided for each compound, with the highest detection concentration at 10 μM, 3-fold gradient dilution) and two replicates in parallel were provided for each treatment concentration. DMSO was at a final concentration of 0.5%. Afterwards, viable cell numbers were determined using Vi-CELL (Beckman Coulter) every 3-4 days. Cells counted were seeded into a new 96-well plate at the same density (1×10^4 cells/well) each time. The wells were supplemented with a fresh medium to 100 μL and at the same time, compounds at different concentrations were added. The cells were cultured to day 13. 100 μL of CellTiter-Glo (CellTiter-GloCellTiter-GloCellTiter-GloCTG) (Promega, product number G7573) was added into each well. The plate was placed in the dark at room temperature for 10-20 minutes and the luminescence signal was read using SpectraMax i3× (Molecular Devices).

Row | SMILES | IC50 [1] [µM] | IC50 (KARPAS-422 cells) [µM]
1 | COc1cc(-c2cnc(NCc3c(F)ccc4c3CCO4)n3cnnc23)c2ncc(C#N)n2c1 [8-(5-(((5-fluoro-2,3-dihydrobenzofuran-4-yl)methyl)amino)-[1,2,4]triazolo[4,3-c]pyrimidin-8-yl)-6-methoxyimidazo[1,2-a]pyridine-3-carbonitrile] | 0.0042 | 0.0045
2 | Fc1ccc2c(c1CNc1ncc(-c3cccc4nsnc34)c3nncn13)CCO2 [8-(benzo[c][1,2,5]thiadiazol-4-yl)-N-((5-fluoro-2,3-dihydrobenzofuran-4-yl)methyl)-[1,2,4]triazolo[4,3-c]pyrimidin-5-amine] | 0.0023 | 0.014
3 | Fc1ccc2c(c1CNc1ncc(-c3cccc4scnc34)c3nncn13)CCO2 [8-(benzo[d]thiazol-4-yl)-N-((5-fluoro-2,3-dihydrobenzofuran-4-yl)methyl)-[1,2,4]triazolo[4,3-c]pyrimidin-5-amine] | 0.0047 | 0.0036
4 | Cc1ccc(-c2cnc(NCc3c(F)ccc4c3CCO4)n3cnnc23)c2ncc(C(=O)N3CCOCC3)n12 [(8-(5-(((5-fluoro-2,3-dihydrobenzofuran-4-yl)methyl)amino)-[1,2,4]triazolo[4,3-c]pyrimidin-8-yl)-5-methylimidazo[1,2-a]pyridin-3-yl)(morpholino)methanone] | 0.0024 | 0.0011
5 | CN(C)CCN(C)Cc1ccc(-c2cnc(NCc3c(F)ccc4c3CCO4)n3cnnc23)c2ncnn12 [N1-((8-(5-(((5-fluoro-2,3-dihydrobenzofuran-4-yl)methyl)amino)-[1,2,4]triazolo[4,3-c]pyrimidin-8-yl)-[1,2,4]triazolo[1,5-a]pyridin-5-yl)methyl)-N1,N2,N2-trimethylethane-1,2-diamine] | 0.0112 | 0.0035
6 | Fc1ccc2c(c1CNc1ncc(-c3cccc4cn[nH]c34)c3nncn13)CCO2 [N-((5-fluoro-2,3-dihydrobenzofuran-4-yl)methyl)-8-(1H-indazol-7-yl)-[1,2,4]triazolo[4,3-c]pyrimidin-5-amine] | 0.0016 | 0.0023
7 | CC1CN(c2ccc(-c3cnc(NCc4c(F)ccc5c4CCO5)n4cnnc34)c3ncnn23)CCO1 (centres unmarked) [N-((5-fluoro-2,3-dihydrobenzofuran-4-yl)methyl)-8-(5-(2-methylmorpholino)-[1,2,4]triazolo[1,5-a]pyridin-8-yl)-[1,2,4]triazolo[4,3-c]pyrimidin-5-amine] | 0.0008 | 0.0005
8 | CN1CCN(c2ccc(-c3cnc(NCc4c(F)ccc5c4CCO5)n4cnnc34)c3ncnn23)CC1 [N-((5-fluoro-2,3-dihydrobenzofuran-4-yl)methyl)-8-(5-(4-methylpiperazin-1-yl)-[1,2,4]triazolo[1,5-a]pyridin-8-yl)-[1,2,4]triazolo[4,3-c]pyrimidin-5-amine] | 0.0041 | 0.0007
9 | Fc1ccc2c(c1CNc1ncc(-c3ccc(N4CCC(N5CCOCC5)CC4)n4ncnc34)c3nncn13)CCO2 [N-((5-fluoro-2,3-dihydrobenzofuran-4-yl)methyl)-8-(5-(4-morpholinopiperidin-1-yl)-[1,2,4]triazolo[1,5-a]pyridin-8-yl)-[1,2,4]triazolo[4,3-c]pyrimidin-5-amine] | 0.0011 | 0.0008
10 | CN1CCN(Cc2ccc(-c3cnc(NCc4c(F)ccc5c4CCO5)n4cnnc34)c3ncnn23)CC1 [N-((5-fluoro-2,3-dihydrobenzofuran-4-yl)methyl)-8-(5-((4-methylpiperazin-1-yl)methyl)-[1,2,4]triazolo[1,5-a]pyridin-8-yl)-[1,2,4]triazolo[4,3-c]pyrimidin-5-amine] | 0.0011 | 0.0007
11 | Fc1ccc2c(c1CNc1ncc(-c3ccc(CN4CCOCC4)n4ncnc34)c3nncn13)CCO2 [N-((5-fluoro-2,3-dihydrobenzofuran-4-yl)methyl)-8-(5-(morpholinomethyl)-[1,2,4]triazolo[1,5-a]pyridin-8-yl)-[1,2,4]triazolo[4,3-c]pyrimidin-5-amine] | 0.0011 | 0.0011

Continued, values first:

Row | IC50 [1] [µM] | IC50 (KARPAS-422 cells) [µM] | SMILES
12 | 0.0023 | 0.0028 | Cc1ccc(-c2cnc(NCc3c(F)ccc4c3CCO4)n3cnnc23)c2nc(C(=O)N(C)C)cn12 [8-(5-(((5-fluoro-2,3-dihydrobenzofuran-4-yl)methyl)amino)-[1,2,4]triazolo[4,3-c]pyrimidin-8-yl)-N,N,5-trimethylimidazo[1,2-a]pyridine-2-carboxamide]
13 | 0.0014 | 0.0012 | Cc1ccc(-c2cnc(NCc3c(F)ccc4c3CCO4)n3cnnc23)c2ncc(C(=O)N(C)C)n12 [8-(5-(((5-fluoro-2,3-dihydrobenzofuran-4-yl)methyl)amino)-[1,2,4]triazolo[4,3-c]pyrimidin-8-yl)-N,N,5-trimethylimidazo[1,2-a]pyridine-3-carboxamide]
14 | 0.0007 | 0.0013 | CN(C)C(=O)c1ccc(-c2cnc(NCc3c(F)ccc4c3CCO4)n3cnnc23)c2nccn12 [8-(5-(((5-fluoro-2,3-dihydrobenzofuran-4-yl)methyl)amino)-[1,2,4]triazolo[4,3-c]pyrimidin-8-yl)-N,N-dimethylimidazo[1,2-a]pyridine-5-carboxamide]
15 | 0.0048 | 0.0036 | N#Cc1ccc(-c2cnc(NCc3c(F)ccc4c3CCO4)n3cnnc23)c2nccn12 [8-(5-(((5-fluoro-2,3-dihydrobenzofuran-4-yl)methyl)amino)-[1,2,4]triazolo[4,3-c]pyrimidin-8-yl)imidazo[1,2-a]pyridine-5-carbonitrile]
16 | 0.0006 | 0.0005 | CN(C)Cc1ccc(-c2cnc(NCc3c(F)ccc4c3CCO4)n3cnnc23)c2ncnn12 [8-(5-((dimethylamino)methyl)-[1,2,4]triazolo[1,5-a]pyridin-8-yl)-N-((5-fluoro-2,3-dihydrobenzofuran-4-yl)methyl)-[1,2,4]triazolo[4,3-c]pyrimidin-5-amine]
17 | 0.001 | 0.0014 | CN(C)c1ccc(-c2cnc(NCc3c(F)ccc4c3CCO4)n3cnnc23)c2ncnn12 [8-(5-(dimethylamino)-[1,2,4]triazolo[1,5-a]pyridin-8-yl)-N-((5-fluoro-2,3-dihydrobenzofuran-4-yl)methyl)-[1,2,4]triazolo[4,3-c]pyrimidin-5-amine]
18 | 0.033 | 0.018 | Fc1ccc2c(c1CNc1ncc(-c3ccc(Cl)n4ncnc34)c3nncn13)CCO2 [8-(5-chloro-[1,2,4]triazolo[1,5-a]pyridin-8-yl)-N-((5-fluoro-2,3-dihydrobenzofuran-4-yl)methyl)-[1,2,4]triazolo[4,3-c]pyrimidin-5-amine]
19 | 0.0009 | 0.0014 | Fc1ccc2c(c1CNc1ncc(-c3cccn4ncnc34)c3nncn13)CCO2 [8-([1,2,4]triazolo[1,5-a]pyridin-8-yl)-N-((5-fluoro-2,3-dihydrobenzofuran-4-yl)methyl)-[1,2,4]triazolo[4,3-c]pyrimidin-5-amine]
